Results on three compounds are retold here after patent publication US10537535B2, “Histone deacetylase inhibitors” (The Regents of the University of California, priority 2015, dated 2020).

Each structure is given as a SMILES string.

For one experiment, the system named is pGMR-HTTQ120 flies. The following applies: orally-administered, previous studies; cited from earlier work.
The test system of experiment [1] is gene expression in the antenna of Drosophila melanogaster. The experiment can be described thus: RNA-seq transcriptome analysis of Drosophila antennae after exposure or feeding. Format: in vivo. To be noted: 5 days; diacetyl 1% headspace, SB/VA 10 mM in food; vs control. From the text: In order to examine the physiological effects of long-term exposure to an odorant, flies were maintained in vials with circulating volatiles from headspace of a low concentration (1% in paraffin oil) of the odorant diacetyl, which acts on a number of different receptor pathways in Drosophila. In a similar manner to previous odor-exposure studies, flies were exposed to diacetyl for 5 days and performed an RNA-seq analysis of the antennae, which are known odor-detecting organs. The transcriptome was compared with a control group of age-matched flies that were exposed to the headspace of the solvent paraffin oil (PO, FIG. 3A).
Flies were exposed to diacetyl (2,3-Butanedione, B85307, Sigma-Aldrich, St. Louis, Mo.) by placing them in vials in a cylindrical closed container (112 mm diameter×151 mm height) along with an odor-containing glass vial. The odorant was dissolved in 10 mL paraffin oil at 1% dilution. For a given exposure protocol, two groups of flies were prepared: those exposed to 1% diacetyl headspace and those exposed to paraffin oil headspace alone (control flies). Adult male flies aged 1 d were transferred to fly vials containing fresh medium, and put into the container with the odor vial. At the end of the fifth day of exposure, flies were collected, and their antennae were dissected for RNA extraction. All treatments and experiments were performed at room temperature. For the recovery experiment, flies were transferred again to the container containing a glass vial of paraffin oil after 5 days of diacetyl exposure. At the end of the fifth day of recovery, flies were collected, and their antennae were dissected for RNA extraction.
Sodium butyrate (B5887, Sigma-Aldrich) or valproic acid (P4543, Sigma-Aldrich) were dissolved in normal fly food medium at the final concentration of 10 mM. Three groups of flies were prepared: those treated with one of the HDAC inhibitors and those without HDAC inhibitor treatment (control flies). Adult flies aged 1 d were transferred to fly vials containing medium with or without a HDAC inhibitor. At the end of the fifth day of treatment, flies were collected, and their antennae were dissected for RNA extraction. All treatments and experiments were performed at room temperature.
The second and third antennal segments from 40-60 male flies after treatment were carefully hand-dissected from the head, collected in 1.5 ml microfuge tubes kept cold in liquid nitrogen. Antennae were mechanically crushed with disposable RNAse-free plastic pestles, and total RNA was isolated using a Trizol-based protocol. cDNA libraries were prepared from total RNA (300-1000 ng/sample) using the Illumina TruSeq RNA Library Preparation Kit (Illumina Catalog #RS-122-2001). Samples were submitted to the UCR IIGB sequencing core for high-throughput sequencing using the Illumina HiSeq2500 platform. Raw reads were aligned to the Drosophila melanogaster reference genome (dmel-all-chromosome-r5.48.fasta) with Tophat2, and a count table of reads overlapping with exonic regions of genes was generated by the UCR bioinformatics core. The numbers of biological replicates are: 2, day 5 paraffin oil; 1, day 5 diacetyl; 2, day 5 mock; 2, day 5 sodium butyrate; 2, day 5 valproic acid; 2, day 10 paraffin oil recovery; 2, day 10 diacetyl recovery.
The read count table for all the genes were then imported into R and a statistical analysis of differential gene expression using the DESeq package (1.22.0) was performed. […] The gene list analysis was performed using the GO Term Mapper (http://go.princeton.edu/) with Generic GO slim datasets, and the Statistical overrepresentation test was performed using the PANTHER classification (http://www.pantherdb.org/) system with GO complete datasets.
This example investigates the overlap among genes modulated by diacetyl as compared to sodium butyrate and valproic acid, which are known HDAC inhibitors. […]

Another experiment deals with Gr63a. The experiment can be described thus: Whole mount RNA in situ of adult Drosophila antenna Gr63a. The following applies: 5 days; odor 1 1% on filter paper, sodium butyrate 10 mM fed; vs untreated or mock. Format: in vivo. Here is the method: For five days, Drosophila were exposed to 1% diacetyl (odor 1) on filter paper; fed known HDAC inhibitor sodium butyrate (Na-but; 10 mM); or fed known HDAC inhibitor valproic acid (10 mM).

`O=C(CCCCCCC(=O)Nc1ccccc1)NO` [SAHA, suberoylanilide hydroxamic acid]: the “photoreceptor degeneration in Huntington's model Drosophila” value in the experiment with pGMR-HTTQ120 flies is “significantly reduce photoreceptor degeneration”.
On to `CCCC(=O)[O-].[Na+]` [sodium butyrate, Sodium butyrate, reference compound], for which the “photoreceptor degeneration in Huntington's model Drosophila” value in the experiment with pGMR-HTTQ120 flies is reported as “significantly reduce photoreceptor degeneration”. For the same compound, in experiment [1], the “number of differentially-expressed genes in antennal transcriptome” value is on record as 558 genes, the “number of genes down-regulated >2-fold” value is given as 366 genes and the “number of genes up-regulated >2-fold” value is 192 genes. The “Gr63a expression in antenna (RNA in situ)” value in the experiment on Gr63a was “over-expression”.
Consider `CCCC(CCC)C(=O)O` [valproic acid, reference compound], for which, in experiment [1], the “number of differentially-expressed genes in antennal transcriptome” value amounted to 940 genes, the “number of genes down-regulated >2-fold” value is recorded as 772 genes and the “number of genes up-regulated >2-fold” value worked out at 168 genes.
